Measurements from ChEMBL document CHEMBL1139849, “Antifungal acylcyclopentenediones from fruiting bodies of Hygrophorus chrysodon” (2007).

Experiments:
Assay type in all cases: functional
Settings in all cases: read-out: IZ
Fusarium verticillioides [1] = assay: Antifungal activity against Fusarium verticillioides Nirenberg (Sacc.) by agar diffusion method at 50 ug
Fusarium verticillioides [2] = assay: Antifungal activity against Fusarium verticillioides Nirenberg (Sacc.) by agar diffusion method at 100 ug
Fusarium verticillioides [3] = assay: Antifungal activity against Fusarium verticillioides Nirenberg (Sacc.) by agar diffusion method at 300 ug

## C=CCCCCCCCCC(O)=C1C(=O)C=CC1=O [CHRYSOTRIONE A]
Fusarium verticillioides [1]
  zone of inhibition at 50 µg/disc: 3 mm
Fusarium verticillioides [2]
  zone of inhibition at 100 µg/disc: 10 mm
Fusarium verticillioides [3]
  zone of inhibition at 300 µg/disc: 35 mm

## CCCCCCCCCCC(O)=C1C(=O)C=CC1=O [CHRYSOTRIONE B]
Fusarium verticillioides [1]
  zone of inhibition at 50 µg/disc: 3 mm
Fusarium verticillioides [2]
  zone of inhibition at 100 µg/disc: 15 mm
Fusarium verticillioides [3]
  zone of inhibition at 300 µg/disc: 18 mm

## Cc1cc(C2CCCCC2)n(O)c(=O)c1 [CICLOPIROX]
Fusarium verticillioides [1]
  zone of inhibition at 50 µg/disc: 25 mm
